From PubChem BioAssay (NCI)
“And” between values parts separate entries of the source, which are not always exact repeats. Identical values can stand only once.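 Each compound was tested at five concentrations against cells in 96-well plates for 48 hours. GI50: concentration for 50% inhibition of growth. The concentration for full growth arrest is given as TGI.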

Legend:
Test in all cases: NCI tumour cell line growth inhibition, 48 h
[1] = test system: OVCAR-5 ovarian
[2] = test system: UACC-62 melanoma
[3] = test system: NCI-H522 lung
[4] = test system: SN12C renal
[5] = test system: HCC-2998 colon
[6] = test system: HT29 colon
[7] = test system: SF-295 CNS
[8] = test system: HOP-92 NSCLC
[9] = test system: LOX IMVI melanoma
[10] = test system: CAKI-1 renal

Structure (SMILES) | TGI [1] | TGI [2] | TGI [3] | TGI [4] | TGI [5] | TGI [6] | TGI [7] | TGI [8] | TGI [9] | TGI [10] | GI50 [1] | GI50 [2] | GI50 [3] | GI50 [4] | GI50 [5] | GI50 [6] | GI50 [8] | GI50 [10] | GI50 [7] | GI50 [9]
Cc1ccc(NC(=O)C(=O)C2C(=O)NC(=O)NC2=O)c(C)c1 | > 100 µM | > 100 µM | > 100 µM | 28.2 µM | > 100 µM | > 100 µM | > 100 µM | > 100 µM | > 100 µM | > 100 µM |  |  |  |  |  |  |  |  |  | 
CCCCCCCCCCNC(=S)OC |  | 65 µM | 58.7 µM | > 100 µM | > 100 µM | > 100 µM | > 100 µM | 65.9 µM | 39.6 µM | > 100 µM |  |  |  |  |  |  |  |  |  | 
NC1=C(O)/C(=N/NS(=O)(=O)c2ccccc2)C(c2ccc3c(c2)OCO3)O1 (configuration not stated) | > 100 µM | > 100 µM | > 100 µM | > 100 µM | > 100 µM | > 100 µM | > 100 µM | > 100 µM | > 100 µM | > 100 µM |  |  |  |  |  |  |  |  |  | 
CC(=O)N(N=O)c1ccc(N(N=O)C(C)=O)cc1 | > 100 µM | > 100 µM | > 100 µM | > 100 µM | > 100 µM | > 100 µM | > 100 µM | > 100 µM | > 100 µM | > 100 µM |  |  |  |  |  |  |  |  |  | 
CCCCCCCCCCCCCCCCCC1=NC(C)(C)CN1C(C)(C)CO | 3.48 µM | 3.46 µM | 3.25 µM | 3.25 µM | 2.5 µM | 3.44 µM |  | 3.37 µM |  | 3.9 µM | 1.56 µM | 1.79 µM | 1.63 µM | 1.52 µM | 1.2 µM | 1.44 µM | 0.85 µM | 1.6 µM |  | 
O=C(O)c1nn(-c2ccc(Cl)cc2)c2c1C(=O)c1ccccc1C2=O | > 100 µM | > 100 µM | > 100 µM | > 100 µM | > 100 µM | > 100 µM | > 100 µM | > 100 µM | > 100 µM | > 100 µM |  |  |  |  |  |  |  |  |  | 
O=C(/C=C/c1ccc(-c2ccccc2)cc1)c1ccccc1 | 41 µM | 50 µM | 35.4 µM | > 100 µM | 33.7 µM | 52.1 µM | > 100 µM | 51.7 µM | 29.2 µM | > 100 µM |  |  |  |  |  |  |  |  |  | 
CC(C)(C)c1cc[n+](C[n+]2ccc(C(C)(C)C)cc2)cc1 | > 100 µM | > 100 µM | > 100 µM | > 100 µM | > 100 µM | > 100 µM | > 100 µM | > 100 µM |  | > 100 µM |  |  |  |  |  |  |  |  |  | 
CC1(C)N=C(N)N=C(N)N1c1cccc(CCCCc2ccc(Cl)c(S(=O)(=O)F)c2)c1 | 22.1 µM | 17.2 µM | 18.8 µM | 16.4 µM | 16 µM | 16.3 µM | 13.4 µM | 21.4 µM | 16.1 µM | > 100 µM | 6.02 µM | 0.732 µM | 1.26 µM | 0.967 µM | 1.92 µM | 0.441 µM | 4.7 µM | 21.3 µM | 2.56 µM | 0.433 µM
CN1C(c2ccccc2)CC(=NO)CC1c1ccccc1 (configuration not stated) | > 100 µM | > 100 µM | > 100 µM | 58.9 µM and 97.1 µM | > 100 µM and 81.6 µM | > 100 µM | > 100 µM | > 100 µM | 40.7 µM | > 100 µM |  |  | 39.7 µM | 30.6 µM | 30.5 µM | 34.8 µM |  |  | 44.5 µM | 
CCCCNC(=O)Oc1ccc(/C(=C(\C)c2ccc(OC)cc2)c2ccc(OCCN3CCCCC3)cc2)cc1 | 23.2 µM | 4.1 µM | 11.4 µM | 6.01 µM | 11.5 µM | 6.77 µM | 5.47 µM | 3.71 µM | 3.44 µM | 3.92 µM | 7.27 µM | 2.06 µM | 3.42 µM | 2.21 µM | 3.31 µM | 0.873 µM | 1.57 µM | 1.94 µM | 2.27 µM | 1.83 µM
FC(F)(F)c1cccc(Oc2ccc(Nc3ncnc4ccc(OCCCN5CCOCC5)cc34)cc2Cl)c1 | 7.76 µM | 3.13 µM | 3.3 µM | 11.8 µM | 3.34 µM | 3.93 µM | 3.49 µM | 7.82 µM | 3.45 µM | 6.62 µM | 2.45 µM | 1.7 µM | 0.833 µM | 2.2 µM | 1.72 µM | 1.75 µM | 1.76 µM | 1.34 µM | 1.75 µM | 1.71 µM
Cc1cc(C)c([I+]c2c(C)cc(C)cc2C)c(C)c1 | 2.09 µM | 1.5 µM | 1.45 µM | 1.21 µM | 1.73 µM | 1.29 µM | 2.18 µM | 1.53 µM |  | 4.15 µM | 0.781 µM | 0.339 µM | 0.351 µM | 0.301 µM | 0.415 µM | 0.279 µM | 0.267 µM | 1.43 µM | 0.591 µM | 
CC(C)(C)OC(=O)NC(Cc1ccccc1)C(=S)N1CCCC1 (configuration not stated) | > 100 µM | > 100 µM | 96.9 µM | > 100 µM | > 100 µM | > 100 µM | > 100 µM | > 100 µM | > 100 µM | > 100 µM |  |  |  |  |  |  |  |  |  | 
O=c1cccccc1O | > 100 µM | > 100 µM | > 100 µM |  | > 100 µM | > 100 µM | > 100 µM | > 100 µM | > 100 µM | > 100 µM |  |  |  |  |  |  |  |  |  | 
CC[C@H](C)[C@H](NC(=O)c1ncccn1)C(=O)N(C)[C@H](C[C@@H](OC(C)=O)c1nc(C(=O)N[C@@H](Cc2ccccc2)C[C@H](C)C(=O)OC)cs1)C(C)C | > 25 µM | > 25 µM | 7.37 µM | > 25 µM | > 25 µM | > 25 µM | 16.7 µM | > 25 µM | > 25 µM |  | 5.07 µM | 0.848 µM | 1.01 µM | 2.81 µM | 6.48 µM | 0.893 µM | 4.36 µM |  | 2.11 µM | 1.46 µM
CC(=O)NNc1ncc(C(=O)/C=C/c2ccccc2C)s1 | > 100 µM | > 100 µM | > 100 µM |  | > 100 µM | > 100 µM | > 100 µM | > 100 µM | > 100 µM | > 100 µM |  |  |  |  |  |  |  |  |  | 
Cc1ccc([N+](=O)[O-])cc1NC(=O)C(=O)Cc1nc2ccc(C(=O)c3ccccc3)cc2[nH]c1=O |  | > 100 µM | > 100 µM | > 100 µM | > 100 µM | > 100 µM | > 100 µM | > 100 µM | > 100 µM | > 100 µM |  |  |  |  |  |  |  |  |  | 
